Drawing on BindingDB's records for doi:10.3109/14756366.2012.732071 (Ondokuz Mayis University, 2013), this text covers Ki for eight molecules.

One test has as its target Carbonic anhydrase 2 (Homo sapiens, UniProt P00918). Description: Esterase Assay. Conditions: pH 7.4; 25 °C. The protocol:
(§1) The enzymatic reaction, in a total volume of 3.0 mL, contained 1.4 mL 0.05 M Tris-SO4 buffer (pH 7.4), 1 mL 3 mM NPA, 0.5 mL H2O and 0.1 mL enzyme solution. A reference measurement was obtained by preparing the same cuvette without enzyme solution. All compounds were tested in triplicate at each concentration used.

The target in the next test is Carbonic anhydrase 1 (Homo sapiens, UniProt P00915). Description: Esterase Assay. The following applies: pH 7.4; 25 °C. The protocol:
as §1

Sequence of Carbonic anhydrase 1 (P00915 whole entry): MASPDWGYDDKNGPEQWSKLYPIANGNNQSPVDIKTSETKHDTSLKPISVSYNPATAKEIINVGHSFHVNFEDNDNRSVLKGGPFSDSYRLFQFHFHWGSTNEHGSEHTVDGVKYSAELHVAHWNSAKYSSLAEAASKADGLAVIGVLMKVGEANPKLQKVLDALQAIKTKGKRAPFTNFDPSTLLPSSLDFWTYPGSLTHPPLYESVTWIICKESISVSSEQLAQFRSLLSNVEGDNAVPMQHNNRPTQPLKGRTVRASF

For the molecule `Cc1cccc(N2C(=O)CSC2c2ccc(C)s2)n1` (stereo unspecified) [Thiazolidin-based CA inhibitor, 3], the Ki turned out to be 1.36 µM at Carbonic anhydrase 2 and 5.38 µM on Carbonic anhydrase 1.

As for `Cc1cccc(N2C(=O)C(C)SC2c2cccs2)n1` (stereo unspecified) [Thiazolidin-based CA inhibitor, 4], the Ki at Carbonic anhydrase 2 was determined as 1.32 µM; at Carbonic anhydrase 1, 5.51 µM.

In the case of `Cc1cccc(N2C(=O)CSC2c2sccc2C)n1` (stereo unspecified) [Thiazolidin-based CA inhibitor, 2], the Ki at Carbonic anhydrase 2 amounted to 2.48 µM; at Carbonic anhydrase 1, 47.5 µM.

On to `Cc1cccc(N2C(=O)[C@@H](C)S[C@H]2c2ccc(C)s2)n1` [(2S,5R)-5-methyl-3-(6-methylpyridin-2-yl)-2-(5-methylthiophen-2-yl)thiazolidin-4-one], for which the Ki on Carbonic anhydrase 2 turned out to be 0.81 µM; on Carbonic anhydrase 1, 4.43 µM.

Regarding `Cc1cccc(N2C(=O)CSC2c2cccs2)n1` (stereo unspecified) [Thiazolidin-based CA inhibitor, 1], the results for the Ki at Carbonic anhydrase 2 and on Carbonic anhydrase 1 were 1.34 µM and 6.8 µM, respectively.

`Cc1cccc(N2C(=O)[C@H](C)S[C@H]2c2ccc(C)s2)n1` [(2S,5S)-5-methyl-3-(6-methylpyridin-2-yl)-2-(5-methylthiophen-2-yl)thiazolidin-4-one]: the Ki at Carbonic anhydrase 2 amounted to 0.93 µM; on Carbonic anhydrase 1, 5.58 µM.

In the case of `Cc1cccc(N2C(=O)[C@H](C)S[C@H]2c2sccc2C)n1` [Thiazolidin-based CA inhibitor, 5a], the Ki on Carbonic anhydrase 2 was 2.29 µM; at Carbonic anhydrase 1, 27.5 µM.

Regarding `Cc1cccc(N2C(=O)[C@@H](C)S[C@H]2c2sccc2C)n1` [Thiazolidin-based CA inhibitor, 5b], the Ki on Carbonic anhydrase 2 was found to be 3.59 µM; on Carbonic anhydrase 1 it was 29.4 µM.
